Test in all cases: cAMP functional assay (HTRF) in HEK293 cells in presence of 0.1% casein
Type in all cases: cell-based
For orientation: TR-FRET usually uses a lanthanide donor and a delayed reading to cut background.

Assay [1] has as its target T1, human glucagon receptor (GcgR) (Homo sapiens, UniProt P47871).
T1 construct: expressed in transfected cells; host or cells: HEK293
To be noted: HEK293 cells expressing human GcgR, geometric mean, read-out: hGcgR cAMP Rel EC50 nM (SEM, n).

The target of assay [2] is T2, human GLP-1 receptor (GLP-1R) (Homo sapiens, UniProt P43220).
T2 construct: expressed in transfected cells; host or cells: HEK293
To be noted: HEK293 cells expressing human GLP-1R, geometric mean, read-out: hGLP1R cAMP Rel EC50 nM (SEM, n).

The target in assay [3] is T3, human glucose-dependent insulinotropic peptide receptor (GIPR) (Homo sapiens, UniProt P48546).
T3 construct: expressed in transfected cells; host or cells: HEK293
T3 sequence (P48546 22-466): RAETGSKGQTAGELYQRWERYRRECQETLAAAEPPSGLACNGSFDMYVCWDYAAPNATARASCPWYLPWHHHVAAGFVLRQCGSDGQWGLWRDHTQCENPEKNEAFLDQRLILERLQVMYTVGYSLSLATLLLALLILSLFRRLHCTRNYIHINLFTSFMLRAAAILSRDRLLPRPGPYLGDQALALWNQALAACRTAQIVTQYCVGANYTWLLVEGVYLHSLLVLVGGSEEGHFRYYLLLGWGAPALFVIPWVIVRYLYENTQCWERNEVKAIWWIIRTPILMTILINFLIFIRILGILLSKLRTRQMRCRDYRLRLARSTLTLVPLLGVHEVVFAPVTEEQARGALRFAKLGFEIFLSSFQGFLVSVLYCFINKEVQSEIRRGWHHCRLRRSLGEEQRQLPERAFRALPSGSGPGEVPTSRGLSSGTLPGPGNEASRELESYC
To be noted: HEK293 cells expressing human GIPR, geometric mean, read-out: hGIPR cAMP Rel EC50 nM (SEM, n).

*1 amine or outer side, *2 acyl side, *3 side chain or, on linkers, in order; H or OH if unused. Where a SMILES comes first, the peptide text is derived from it. Side-chain parts run from the residue outwards. [ ]: non-standard residue; d: D form. The star is where a group is joined. C20 diacid = O=C(O)CCCCCCCCCCCCCCCCCCC(=O)*; C18 diacid = O=C(O)CCCCCCCCCCCCCCCCC(=O)*; γGlu = O=C(O)[C@H](CCC(=O)[*:2])N[*:1]; 4Pal = N[C@@H](Cc1ccncc1)C(=O)O; αMeL = CC(C)C[C@](C)(N)C(=O)O; Orn = NCCC[C@H](N)C(=O)O; AEEA = NCCOCCOCC(=O)O; Aib = CC(C)(N)C(=O)O

The results in this text go back to patent US12723063B2, “GIPR-agonist compounds” (Eli Lilly and Company, priority 2019, dated 2026).

Broadly, the EC50 is the concentration that produces a half-maximal response.

T1 sequence (P47871 26-477): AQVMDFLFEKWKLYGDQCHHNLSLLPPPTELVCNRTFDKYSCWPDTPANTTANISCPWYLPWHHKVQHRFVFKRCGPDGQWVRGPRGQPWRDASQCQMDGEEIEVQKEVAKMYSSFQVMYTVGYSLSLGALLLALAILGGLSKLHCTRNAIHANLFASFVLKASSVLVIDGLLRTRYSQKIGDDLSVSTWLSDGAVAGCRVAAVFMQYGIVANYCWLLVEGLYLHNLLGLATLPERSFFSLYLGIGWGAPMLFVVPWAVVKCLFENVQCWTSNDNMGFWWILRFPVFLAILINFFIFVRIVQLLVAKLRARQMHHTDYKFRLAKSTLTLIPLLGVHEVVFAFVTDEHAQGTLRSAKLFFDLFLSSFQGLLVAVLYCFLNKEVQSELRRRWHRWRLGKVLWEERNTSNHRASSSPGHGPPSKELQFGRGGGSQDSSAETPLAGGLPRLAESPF
T2 sequence (P43220 24-463): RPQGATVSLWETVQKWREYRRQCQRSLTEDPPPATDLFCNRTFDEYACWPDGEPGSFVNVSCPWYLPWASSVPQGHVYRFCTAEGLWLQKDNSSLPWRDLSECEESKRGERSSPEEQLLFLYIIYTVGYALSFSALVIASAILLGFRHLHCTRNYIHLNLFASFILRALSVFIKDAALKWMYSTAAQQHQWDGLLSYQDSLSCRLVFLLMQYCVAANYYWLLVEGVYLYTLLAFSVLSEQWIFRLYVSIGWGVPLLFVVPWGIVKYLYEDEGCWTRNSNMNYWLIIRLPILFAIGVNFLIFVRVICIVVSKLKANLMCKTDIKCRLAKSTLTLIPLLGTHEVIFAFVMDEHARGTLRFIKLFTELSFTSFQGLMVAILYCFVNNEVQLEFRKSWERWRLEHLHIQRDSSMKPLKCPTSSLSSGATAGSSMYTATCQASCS

As to `CC[C@H](C)[C@H](NC(=O)[C@H](Cc1ccccc1)NC(=O)[C@@H](NC(=O)CNC(=O)[C@H](CCC(=O)O)NC(=O)C(C)(C)NC(=O)[C@@H](N)Cc1ccc(O)cc1)[C@@H](C)O)C(=O)N[C@@H](CO)C(=O)N[C@@H](CC(=O)O)C(=O)N[C@@H](Cc1ccc(O)cc1)C(=O)N[C@@H](CO)C(=O)N[C@H](C(=O)N[C@@](C)(CC(C)C)C(=O)N[C@@H](CC(C)C)C(=O)N[C@@H](CC(=O)O)C(=O)N[C@@H](CCCN)C(=O)N[C@@H](CCCCNC(=O)COCCOCCNC(=O)COCCOCCNC(=O)CC[C@H](NC(=O)CCCCCCCCCCCCCCCCCCC(=O)O)C(=O)O)C(=O)N[C@@H](Cc1c[nH]cn1)C(=O)N[C@@H](CCC(N)=O)C(=O)NC(C)(C)C(=O)N[C@@H](CC(=O)O)C(=O)N[C@@H](Cc1ccccc1)C(=O)N[C@H](C(=O)N[C@@H](CCC(=O)O)C(=O)N[C@@H](Cc1ccncc1)C(=O)N[C@@H](CC(C)C)C(=O)N[C@@H](CC(C)C)C(=O)N[C@@H](CCC(=O)O)C(=O)NCC(=O)NCC(=O)N1CCC[C@H]1C(=O)N[C@@H](CO)C(=O)N[C@@H](CO)C(=O)NCC(=O)N[C@@H](C)C(=O)N1CCC[C@H]1C(=O)N1CCC[C@H]1C(=O)N1CCC[C@H]1C(=O)N[C@@H](CO)C(N)=O)C(C)C)[C@@H](C)CC` [Example 82] (H-Y[Aib]EGTFISDYSI[αMeL]LD[Orn]K([AEEA-AEEA-γGlu-C20 diacid])HQ[Aib]DFVE[4Pal]LLEGGPSSGAPPPS-NH2), the values for the concentration for a half-maximal effect (EC50) in assay [1], in assay [2] and in assay [3] were 3790 nM, over 5000 nM and 0.0391 nM, respectively.
`CC[C@H](C)[C@H](NC(=O)[C@H](Cc1ccccc1)NC(=O)[C@@H](NC(=O)CNC(=O)[C@H](CCC(=O)O)NC(=O)C(C)(C)NC(=O)[C@@H](N)Cc1ccc(O)cc1)[C@@H](C)O)C(=O)N[C@@H](CO)C(=O)N[C@@H](CC(=O)O)C(=O)N[C@@H](Cc1ccc(O)cc1)C(=O)N[C@@H](CO)C(=O)N[C@H](C(=O)N[C@@](C)(CC(C)C)C(=O)N[C@@H](CC(C)C)C(=O)N[C@@H](CC(=O)O)C(=O)N[C@@H](CCC(=O)O)C(=O)N[C@@H](CCCCNC(=O)COCCOCCNC(=O)COCCOCCNC(=O)CC[C@H](NC(=O)CCCCCCCCCCCCCCCCCCC(=O)O)C(=O)O)C(=O)N[C@@H](Cc1c[nH]cn1)C(=O)N[C@@H](CCC(N)=O)C(=O)NC(C)(C)C(=O)N[C@@H](CC(=O)O)C(=O)N[C@@H](Cc1ccccc1)C(=O)N[C@H](C(=O)N[C@@H](CCC(=O)O)C(=O)N[C@@H](Cc1ccncc1)C(=O)N[C@@H](CC(C)C)C(=O)N[C@@H](CC(C)C)C(=O)N[C@@H](C)C(=O)N[C@H](C(=O)NCC(=O)N1CCC[C@H]1C(=O)N[C@@H](CO)C(=O)N[C@@H](CO)C(=O)NCC(=O)N[C@@H](C)C(=O)N1CCC[C@H]1C(=O)N1CCC[C@H]1C(=O)N1CCC[C@H]1C(=O)N[C@@H](CO)C(N)=O)[C@@H](C)O)C(C)C)[C@@H](C)CC` [Example 83] (H-Y[Aib]EGTFISDYSI[αMeL]LDEK([AEEA-AEEA-γGlu-C20 diacid])HQ[Aib]DFVE[4Pal]LLATGPSSGAPPPS-NH2): the concentration giving a half-maximal response (EC50) in assay [1] was over 5000 nM; in assay [2] it was over 5000 nM; in assay [3], 0.0432 nM.
Turning to `CC[C@H](C)[C@H](NC(=O)[C@H](Cc1ccccc1)NC(=O)[C@@H](NC(=O)CNC(=O)[C@H](CCC(=O)O)NC(=O)C(C)(C)NC(=O)[C@@H](N)Cc1ccc(O)cc1)[C@@H](C)O)C(=O)N[C@@H](CO)C(=O)N[C@@H](CC(=O)O)C(=O)N[C@@H](Cc1ccc(O)cc1)C(=O)N[C@@H](CO)C(=O)N[C@H](C(=O)N[C@@](C)(CC(C)C)C(=O)N[C@@H](CC(C)C)C(=O)N[C@@H](CC(=O)O)C(=O)N[C@@H](CCC(=O)O)C(=O)N[C@@H](CCCCNC(=O)COCCOCCNC(=O)COCCOCCNC(=O)CC[C@H](NC(=O)CCCCCCCCCCCCCCCCCCC(=O)O)C(=O)O)C(=O)N[C@@H](Cc1c[nH]cn1)C(=O)N[C@@H](CCC(N)=O)C(=O)NC(C)(C)C(=O)N[C@@H](CC(=O)O)C(=O)N[C@@H](Cc1ccccc1)C(=O)N[C@H](C(=O)N[C@@H](CCC(=O)O)C(=O)N[C@@H](Cc1ccncc1)C(=O)N[C@@H](CC(C)C)C(=O)N[C@@H](CC(C)C)C(=O)N[C@@H](C)C(=O)N[C@@H](CCC(N)=O)C(=O)NCC(=O)N1CCC[C@H]1C(=O)N[C@@H](CO)C(=O)N[C@@H](CO)C(=O)NCC(=O)N[C@@H](C)C(=O)N1CCC[C@H]1C(=O)N1CCC[C@H]1C(=O)N1CCC[C@H]1C(=O)N[C@@H](CO)C(N)=O)C(C)C)[C@@H](C)CC` [Example 84] (H-Y[Aib]EGTFISDYSI[αMeL]LDEK([AEEA-AEEA-γGlu-C20 diacid])HQ[Aib]DFVE[4Pal]LLAQGPSSGAPPPS-NH2), the values for the concentration giving a half-maximal response (EC50) in assay [1], in assay [2] and in assay [3] were over 5000 nM, over 5000 nM and 0.034 nM, respectively.
In the case of `CC[C@H](C)[C@H](NC(=O)[C@H](Cc1ccccc1)NC(=O)[C@@H](NC(=O)CNC(=O)[C@H](CCC(=O)O)NC(=O)C(C)(C)NC(=O)[C@@H](N)Cc1ccc(O)cc1)[C@@H](C)O)C(=O)N[C@@H](CO)C(=O)N[C@@H](CC(=O)O)C(=O)N[C@@H](Cc1ccc(O)cc1)C(=O)N[C@@H](CO)C(=O)N[C@H](C(=O)N[C@@](C)(CC(C)C)C(=O)N[C@@H](CC(C)C)C(=O)N[C@@H](CC(=O)O)C(=O)N[C@@H](CCC(=O)O)C(=O)N[C@@H](CCCCNC(=O)COCCOCCNC(=O)COCCOCCNC(=O)CC[C@H](NC(=O)CCCCCCCCCCCCCCCCCCC(=O)O)C(=O)O)C(=O)N[C@@H](Cc1c[nH]cn1)C(=O)N[C@@H](CCC(N)=O)C(=O)NC(C)(C)C(=O)N[C@@H](CC(=O)O)C(=O)N[C@@H](Cc1ccccc1)C(=O)N[C@H](C(=O)N[C@@H](CCC(=O)O)C(=O)N[C@@H](Cc1ccncc1)C(=O)N[C@@H](CC(C)C)C(=O)N[C@@H](CC(C)C)C(=O)N[C@@H](C)C(=O)N[C@@H](C)C(=O)NCC(=O)N1CCC[C@H]1C(=O)N[C@@H](CO)C(=O)N[C@@H](CO)C(=O)NCC(=O)N[C@@H](C)C(=O)N1CCC[C@H]1C(=O)N1CCC[C@H]1C(=O)N1CCC[C@H]1C(=O)N[C@@H](CO)C(N)=O)C(C)C)[C@@H](C)CC` [Example 85], the half-maximal effective concentration (EC50) is over 5000 nM in assay [1], over 5000 nM in assay [2] and 0.0359 nM in assay [3].
For the compound `CC[C@H](C)[C@H](NC(=O)[C@H](Cc1ccccc1)NC(=O)[C@@H](NC(=O)CNC(=O)[C@H](CCC(=O)O)NC(=O)C(C)(C)NC(=O)[C@@H](N)Cc1ccc(O)cc1)[C@@H](C)O)C(=O)N[C@@H](CO)C(=O)N[C@@H](CC(=O)O)C(=O)N[C@@H](Cc1ccc(O)cc1)C(=O)N[C@@H](CO)C(=O)N[C@H](C(=O)N[C@@](C)(CC(C)C)C(=O)N[C@@H](CC(C)C)C(=O)N[C@@H](CC(=O)O)C(=O)N[C@@H](CCC(=O)O)C(=O)N[C@@H](CCCCNC(=O)COCCOCCNC(=O)COCCOCCNC(=O)CC[C@H](NC(=O)CCCCCCCCCCCCCCCCCCC(=O)O)C(=O)O)C(=O)N[C@@H](Cc1c[nH]cn1)C(=O)N[C@@H](CCC(N)=O)C(=O)NC(C)(C)C(=O)N[C@@H](CC(=O)O)C(=O)N[C@@H](Cc1ccccc1)C(=O)N[C@H](C(=O)N[C@@H](CCC(=O)O)C(=O)N[C@@H](Cc1ccncc1)C(=O)N[C@@H](CC(C)C)C(=O)N[C@@H](CC(C)C)C(=O)N[C@@H](C)C(=O)NCC(=O)NCC(=O)N1CCC[C@H]1C(=O)N[C@@H](CO)C(=O)N[C@@H](CO)C(=O)NCC(=O)N[C@@H](C)C(=O)N1CCC[C@H]1C(=O)N1CCC[C@H]1C(=O)N1CCC[C@H]1C(=O)N[C@@H](CO)C(N)=O)C(C)C)[C@@H](C)CC` [Example 86], the EC50 is over 5000 nM in assay [1], over 5000 nM in assay [2] and 0.03 nM in assay [3].
As to `CC[C@H](C)[C@H](NC(=O)[C@H](Cc1ccccc1)NC(=O)[C@@H](NC(=O)CNC(=O)[C@H](CCC(=O)O)NC(=O)C(C)(C)NC(=O)[C@@H](N)Cc1ccc(O)cc1)[C@@H](C)O)C(=O)N[C@@H](CO)C(=O)N[C@@H](CC(=O)O)C(=O)N[C@@H](Cc1ccc(O)cc1)C(=O)N[C@@H](CO)C(=O)N[C@H](C(=O)N[C@@](C)(CC(C)C)C(=O)N[C@@H](CC(C)C)C(=O)N[C@@H](CC(=O)O)C(=O)N[C@@H](CCCN)C(=O)N[C@@H](CCCCNC(=O)COCCOCCNC(=O)COCCOCCNC(=O)CC[C@H](NC(=O)CCCCCCCCCCCCCCCCC(=O)O)C(=O)O)C(=O)N[C@@H](Cc1c[nH]cn1)C(=O)N[C@@H](CCC(N)=O)C(=O)NC(C)(C)C(=O)N[C@@H](CC(=O)O)C(=O)N[C@@H](Cc1ccccc1)C(=O)N[C@H](C(=O)N[C@@H](CCC(=O)O)C(=O)N[C@@H](Cc1ccncc1)C(=O)N[C@@H](CC(C)C)C(=O)N[C@@H](CC(C)C)C(=O)N[C@@H](CCC(=O)O)C(=O)N[C@@H](C)C(=O)NCC(=O)N1CCC[C@H]1C(=O)N[C@@H](CO)C(=O)N[C@@H](CO)C(=O)NCC(=O)N[C@@H](C)C(=O)N1CCC[C@H]1C(=O)N1CCC[C@H]1C(=O)N1CCC[C@H]1C(=O)N[C@@H](CO)C(N)=O)C(C)C)[C@@H](C)CC` [Example 87] (H-Y[Aib]EGTFISDYSI[αMeL]LD[Orn]K([AEEA-AEEA-γGlu-C18 diacid])HQ[Aib]DFVE[4Pal]LLEAGPSSGAPPPS-NH2), the EC50 in assay [1] is over 5000 nM; in assay [2], over 5000 nM; in assay [3], 0.0107 nM.
